This is an account of results in patent US20070099947A1, “Methods and compositions for the treatment of brain reward system disorders by combination therapy” (Alkermes, Inc., priority 2005, published 2007).

Data set [1] concerns self-administration of ethanol. The data set is described as follows: Operant self-administration of ethanol (lever presses for 10% ethanol cocktail). Type of data set: in vivo, Male Wistar rats. Conditions: for Percent Change from Non-Drug Baseline: Repeated Dosing: Day 1 / Percent Change from Non-Drug Baseline: Repeated Dosing: Day 5 / Percent Change from Non-Drug Baseline: Single Dosing: lever presses for ethanol, naltrexone ED75 SC; for Percent Change from Non-Drug Baseline: Repeated Dosing: Day 1 / Percent Change from Non-Drug Baseline: Repeated Dosing: Day 5: once a day for 5 days; for effect on number of lever presses for ethanol over the dose range: naltrexone 0-6 mg/kg SC, 30 min before session; for Lever Presses (Mean ± SEM): 30 min session; for decrease in number of lever presses for ethanol compared to non-drug treated (baseline): naltrexone ED75 0.05-0.075 mg/kg SC alone. How it is done:
Male Wistar rats (initial weight of 200±30 grams; Charles River Laboratories, MA) were individually housed with free access to food and water. The vivarium was maintained on a 12 hour light/dark cycle with a room temperature of 22±3° C.
Animals were trained daily in an operant chamber to press a lever to receive access to an ethanol cocktail as a reinforcer using a saccharin fading procedure. […] The final ethanol cocktail contained 10% ethanol in 0.04% saccharine. Each session lasted 30 minutes, during which the rat could press the lever twice to gain access to 0.1 mL of the ethanol cocktail. The operant chamber (Coulboume Instruments, Allentown, Pa.) is a computer-controlled automated system which recorded the number of lever presses completed by a rat. At the end of the training period (6-8 weeks), rats which consistently drank a minimum intake of 0.6 g/kg/hour of EtOH (approximately 60 bar presses) were selected to participate in the drug studies. These trained rats were used repeatedly throughout these studies to control for intra-subject variability. Assessments of drug effects were made following a single dosing, with a minimum of a 2 day drug washout period between arms of studies.
The ability of naltrexone to reduce ethanol drinking (i.e., decrease the number of lever presses) was assessed in this animal model of self administration of ethanol. […] The total number of lever presses was recorded over the 30 minute test session. […] In addition, oral activity was also assessed. […] The animals were tested in the operant chambers one hour later and the number of lever presses for ethanol was recorded for the 30 minute session.
This dose allows one to determine if the co-administered drugs impaired or enhanced naltrexone's effect on ethanol drinking. The drugs were administered orally 30 minutes prior to a naltrexone injection (SC), and 60 minutes prior to the beginning of the ethanol drinking test session. The number of lever presses for the ethanol cocktail was recorded at the end of the 30 minute session.
Repeated Dosing. The previous studies were conducted using a single dosing procedure. To determine if this drug interaction might be further enhanced with repeated daily dosing or conversely, the effect on decreasing alcohol self-administration is lost (due to tolerance) following multiple daily dosing, the study was repeated with a once-a-day for 5 days dosing procedure. […] Animals were tested on Day 1 and on Day 5.
Repeated Dosing. The previous study was conducted using a single dosing procedure. To determine if this drug interaction might be further enhanced with repeated dosing or conversely, the effect on decreasing alcohol self-administration is lost (due to tolerance) following multiple daily dosing, the study was repeated with a once-a-day for 5 days dosing procedure. […] Animals were tested on Day 1 and on Day 5.

The test system of data set [2] is morphine-induced analgesia. The data set is described as follows: Hotplate test: inhibition of morphine-induced analgesia. Type of data set: in vivo, Male Wistar rats. The note with it: 5 consecutive days SC dosing; first vs last day response latencies.
Data set [3] is described as follows: Pharmacokinetic profile of opioid antagonists after IV, PO and SC administration. Conditions: rat; for AUC(0-inf) / bioavailability: male, Sprague Dawley, in vivo. As to the method:
Blood samples were collected for 6 hours post-dose. Concentrations of each parent drug were determined by LC/MS-MS. Pharmacokinetic parameters were determined by noncompartmental analysis.

On to `Cc1c(C(=O)NN2CCCCC2)nn(-c2ccc(Cl)cc2Cl)c1-c1ccc(I)cc1` [AM-251], for which the “lever pressing for ethanol compared to non-drug treated conditions” value in data set [1] (AM-251 3.0 mg/kg alone) was “no effect”. In data set [1] (AM-251 1 mg/kg PO), the “Percent Change from Non-Drug Baseline: Repeated Dosing: Day 1” value is −2% and the “Percent Change from Non-Drug Baseline: Repeated Dosing: Day 5” value is “+19%”.
On to `NC[C@H](CC(=O)O)c1ccc(Cl)cc1` [Baclofen, R(+)-Baclofen], for which, in data set [1] (baclofen 3.0 mg/kg alone, p<0.01), the “lever pressing for ethanol compared to non-drug treated conditions” value was “significantly decreased the self-administration of ethanol”. In data set [1] (baclofen 0.3 mg/kg PO), the “Percent Change from Non-Drug Baseline: Repeated Dosing: Day 1” value was −35% and the “Percent Change from Non-Drug Baseline: Repeated Dosing: Day 5” value was −30%.
The AUC(0-inf) is the area under the concentration-time curve extrapolated to infinity. The low end stands for low exposure, the high end for high exposure. In general, bioavailability refers to dose-corrected exposure relative to a reference, in per cent. The low end stands for poor availability, the high end for good availability. For `O=C1CC[C@@]2(O)[C@H]3Cc4ccc(O)c5c4[C@@]2(CCN3CC2CC2)[C@H]1O5` [Naltrexone], in data set [1] (0.5 mg/kg SC, 30 minutes prior to testing), the “effect on decreasing self-administration of ethanol” value is “equivalent effects”. Besides, the “effect on decreasing self-administration of ethanol (oral activity)” value in data set [1] (10 mg/kg oral gavage, tested one hour later) is “only RDC-0313-01 was active”. Moreover, the “ED75 (dose of naltrexone that produced a 25% decrease in lever responses for ethanol)” value in data set [1] (SC, titrated for each individual animal) is 0.05 to 0.075 mg/kg. The “Percent Change from Non-Drug Baseline: Repeated Dosing: Day 1” value in data set [1] (AM-251 1 mg/kg PO) is reported as −24%; in data set [1] (baclofen 0.3 mg/kg PO) it was −43%. The “Percent Change from Non-Drug Baseline: Repeated Dosing: Day 5” value in data set [1] (AM-251 1 mg/kg PO) is −19%; in data set [1] (baclofen 0.3 mg/kg PO) it was −57%. In addition, the “Percent Change from Non-Drug Baseline: Single Dosing” value is −33% in data set [1] (AM-251 PO) and −18% in data set [1] (baclofen PO). The “decrease in lever presses versus baseline and vehicle control” value in data set [1] (lowest dose of naltrexone tested, 0.05 mg/kg) is “no significant decrease”. Moreover, the entries for the “effect on number of lever presses for ethanol over the dose range” value in data set [1] and in data set [1] (listed as naltrexone) were “Suppresses the Self-Administration of Ethanol in a Dose-Dependent Manner” and “dose-dependent decrease in the number of lever presses”, respectively. Besides, the “Approximate Absolute Ethanol Consumed” value in data set [1] (naltrexone 0.05 mg/kg SC) was 1.0 g/kg; in data set [1] (naltrexone 0.1 mg/kg SC), 0.7 g/kg; in data set [1] (naltrexone 0.5 mg/kg SC), 0.6 g/kg; in data set [1] (naltrexone 1.0 mg/kg SC) it was 0.3 g/kg; in data set [1] (naltrexone 3.0 mg/kg SC) it was 0.2 g/kg; in data set [1] (naltrexone 6.0 mg/kg SC), 0.2 g/kg. The “Lever Presses (Mean ± SEM)” value in data set [1] (naltrexone 0.05 mg/kg SC) was found to be 132 ± 13.3; in data set [1] (naltrexone 0.1 mg/kg SC) it was 88 ± 8.6; in data set [1] (naltrexone 0.5 mg/kg SC) it was 83 ± 12.1; in data set [1] (naltrexone 1.0 mg/kg SC), 43 ± 8.6; in data set [1] (naltrexone 3.0 mg/kg SC), 24 ± 8.1; in data set [1] (naltrexone 6.0 mg/kg SC) it was 21 ± 5.5. In data set [1] (naltrexone 3 and 6 mg/kg), the “effect on decreasing ethanol drinking at the higher doses” value is “appeared to plateau”. Further, the “decrease in number of lever presses for ethanol compared to non-drug treated (baseline)” value in data set [1] (AM-251 acute dosing study) was found to be 32.5%; in data set [1] (baclofen single dosing study), 18%. Further, the “development of tolerance in blocking morphine-induced analgesia” value in data set [2] is listed as “no development of tolerance”. Also, the area under the curve AUC(0-inf) in data set [3] (po, 10 mg/kg) is 150 ng·h/mL; in data set [3] (sc, 0.1 mg/kg), 14.4 ng·h/mL. Further, the bioavailability in data set [3] (po, 10 mg/kg) was 3%; in data set [3] (sc, 0.1 mg/kg) it was 31%. Further, in data set [3] (PO or SC), the absorption entry was “rapidly absorbed”.
